Data from patent US10913983B2, “Sensitivity markers and uses for CDK7 inhibitors in breast cancers” (UNIVERSITY OF SOUTH CAROLINA, priority 2017, dated 2021).
Like-named read-outs stand apart in the source and are kept apart here.

Key:
MDA-MB-468 cells = settings: fold change in gene expression, 250 nM THZ1; cited from earlier work
BT549 = assay: Cell proliferation MTT assay; assay type: cell-based
Description: (§1) Cells were seeded in 12-well plates at densities ranging from 10000-30000 cells/well and after 24 hours cells were treated with 10, 40 and 100 nM THZ1 in triplicate. After 7 days the cells were imaged using Zeiss Axiovert 200 microscope using a 20× objective lens. Additionally, cells were plated in 96-well plates at a density of 2000 cells/well and after 24 hours treated with 0-10 μM THZ1. After 2 and 7 days the growth of the cells was measured by MTT assay.
(§2) All results were presented as mean±standard deviation of 4-8 parallel assessments. Similar results were obtained from a minimum of two independent experiments. […] Densitometry was performed on duplicate immunoblots using ImageLab software (Biorad) and normalized to tubulin loading controls and then correlated with the THZ1 IC50 values of each cell line. Statistical analyses were performed using SPSS 18.0 (SPSS Inc). Bi-variant scatter graphs and Spearman rank analyses were performed to evaluate associations between protein levels, mRNA and response to inhibition. IC50 values were calculated for MTT assays using CompuSyn software.

T47D = assay: Cell proliferation MTT assay; assay type: cell-based
Description: as §1, §2

HCC1954 = assay: Cell proliferation MTT assay; assay type: cell-based
Description: as §1, §2

BT474 = assay: Cell proliferation MTT assay; assay type: cell-based
Description: as §1, §2

JIMT-1 = assay: Cell proliferation MTT assay; assay type: cell-based; settings: for IC50: MTT
Description: as §1, §2

HCC1937 = assay: Cell proliferation MTT assay; assay type: cell-based
Description: as §1, §2

MDA-MB-453 = assay: Cell proliferation MTT assay; assay type: cell-based
Description: as §1, §2

MDA-MB-361 = assay: Cell proliferation MTT assay; assay type: cell-based
Description: as §1, §2

SKBR3 = assay: Cell proliferation MTT assay; assay type: cell-based
Description: as §1, §2

MDA-MB-231 = assay: Cell proliferation MTT assay; assay type: cell-based
Description: as §1, §2

MCF7 = assay: Cell proliferation MTT assay; assay type: cell-based
Description: as §1, §2

ZR-75-1 = assay: Cell proliferation MTT assay; assay type: cell-based
Description: as §1, §2

ZR751 = settings: fold change in gene expression, THZ1; cited from earlier work
[1] = test system: PARP cleavage in MDA-MB-231, SKBR3 and JIMT-1 cells; assay: Immunoblotting for PARP cleavage; assay type: cell-based; settings: 250 nM, 24 and 48 hours
Description: Cells were plated in 100 mm^2 petri dishes at a density of 1×10^6 cells/plate and allowed to grow for 3-4 days until the cells reached 80% confluency. Cells were treated with THZ1 or with vehicle control (DMSO) prior to lysing cells in RIPA buffer containing protease inhibitor cocktail and PMSF. Protein concentration was determined using BCA assay (Pierce). All lysates were prepared in biological duplicates. Protein (50 μg) was resolved on 4-20% Express-Plus PAGE gels in Tris-MOPS (SDS) running buffer (GenScript), transferred to PVDF membranes and incubated at 4° C. overnight with primary antibodies: CDK7 (sc-529, SantaCruz), ER (sc-543, SantaCruz), HER2 (#4290, Cell Signaling Technology), RNA-Pol II-S2P (C152000005, Diagenode), RNA-Pol II-S5P C152000007, RNA-Pol II-S7P (04-1570, Millipore) and RNA-Pol II (sc-900X, SantaCruz), CITED2 (MAB5005, R+D Systems), Tubulin (T-9026, Sigma), followed by anti-rabbit (#31460, ThermoFisher Scientific), anti-mouse (31430, ThermoFisher Scientific) or anti-rat (AP136P, Millipore) secondary antibodies. Bands were visualized with Western Lighting Plus ECL detection reagent (Perkin Elmer) using ChemiDoc Touch™ (BioRad). Images were analyzed and densitometry performed using ImageLab software (Biorad).

IC50 (BT549; BT549, 2 days, read-out: 2 day IC50): 17 nM
IC50 (BT549; BT549, 7 days, read-out: 7 day IC50): 8 nM
IC50 (T47D; 2 days, read-out: 2 day IC50): 89 nM
IC50 (T47D; 7 days, read-out: 7 day IC50): 14 nM
IC50 (HCC1954; HCC1954, 2 days, read-out: 2 day IC50): 158 nM
IC50 (HCC1954; HCC1954, 7 days, read-out: 7 day IC50): 36 nM
IC50 (BT474; BT474, 2 days, read-out: 2 day IC50): 490 nM
IC50 (BT474; BT474, 7 days, read-out: 7 day IC50): 27 nM
IC50 (HCC1937; HCC1937, 2 days, read-out: 2 day IC50): 94 nM
IC50 (HCC1937; HCC1937, 7 days, read-out: 7 day IC50): 24 nM
IC50 (MDA-MB-453; MDA-MB-453, 2 days, read-out: 2 day IC50): 133 nM
IC50 (MDA-MB-453; MDA-MB-453, 7 days, read-out: 7 day IC50): 12 nM
IC50 (MDA-MB-361; MDA-MB-361, 2 days, read-out: 2 day IC50): 133 nM
IC50 (MDA-MB-361; MDA-MB-361, 7 days, read-out: 7 day IC50): 27 nM
IC50 (SKBR3; SKBR3, 2 days, read-out: 2 day IC50): 23 nM
IC50 (SKBR3; SKBR3, 7 days, read-out: 7 day IC50): 9 nM
IC50 (MDA-MB-231; MDA-MB-231, 2 days, read-out: 2 day IC50): 159 nM
IC50 (MDA-MB-231; MDA-MB-231, 7 days, read-out: 7 day IC50): 36 nM
IC50 (MCF7; MCF7, 2 days, read-out: 2 day IC50): 32 nM
IC50 (MCF7; MCF7, 7 days, read-out: 7 day IC50): 59 nM
Structure (SMILES): CN(C)C/C=C/C(=O)Nc1ccc(C(=O)Nc2cccc(Nc3ncc(Cl)c(-c4c[nH]c5ccccc45)n3)c2)cc1 [THZ1]
BAMBI 468 FC (MDA-MB-468 cells): −3.8
CDKN1B 468 FC (MDA-MB-468 cells): −4.11
CITED2 468 FC (MDA-MB-468 cells): −4.53
CYR61 468 FC (MDA-MB-468 cells): −4.82
DKK1 468 FC (MDA-MB-468 cells): −4.7
E2F8 468 FC (MDA-MB-468 cells): −4.01
ELF3 468 FC (MDA-MB-468 cells): −3.88
FADD 468 FC (MDA-MB-468 cells): −3.93
FBXO5 468 FC (MDA-MB-468 cells): −4.19
MARS2 468 FC (MDA-MB-468 cells): −4.04
MOCS3 468 FC (MDA-MB-468 cells): −3.84
MYC 468 FC (MDA-MB-468 cells): −4.64
NEDD9 468 FC (MDA-MB-468 cells): −4.03
PHLDA1 468 FC (MDA-MB-468 cells): −3.71
PIM3 468 FC (MDA-MB-468 cells): −4.05
PLK2 468 FC (MDA-MB-468 cells): −3.99
TRIB1 468 FC (MDA-MB-468 cells): −3.69
WEE1 468 FC (MDA-MB-468 cells): −3.69
ZNF217 468 FC (MDA-MB-468 cells): −3.77
ZNF627 468 FC (MDA-MB-468 cells): −3.68
IC50 (JIMT-1; JIMT-1, 2 days, read-out: 2 day IC50): 289 nM
IC50 (JIMT-1; JIMT-1, 7 days, read-out: 7 day IC50): 87 nM
response to low nanomolar concentrations (JIMT-1; JIMT-1, <100 nM, 7 days of treatment): lack of significant response
IC50 (ZR-75-1; ZR-75-1, 2 days, read-out: 2 day IC50): 286 nM
IC50 (ZR-75-1; ZR-75-1, 7 days, read-out: 7 day IC50): 50 nM
BAMBI ZR751 FC (ZR751): −3.77
CDKN1B ZR751 FC (ZR751): −2.57
CITED2 ZR751 FC (ZR751): −2.64
CYR61 ZR751 FC (ZR751): −1.81
DKK1 ZR751 FC (ZR751): −4.15
E2F8 ZR751 FC (ZR751): −4.01
ELF3 ZR751 FC (ZR751): −1.65
FADD ZR751 FC (ZR751): −4.12
FBXO5 ZR751 FC (ZR751): −3.01
MARS2 ZR751 FC (ZR751): −3.75
MOCS3 ZR751 FC (ZR751): −4.1
MYC ZR751 FC (ZR751): −2.98
NEDD9 ZR751 FC (ZR751): −2.68
PHLDA1 ZR751 FC (ZR751): −2.55
PIM3 ZR751 FC (ZR751): −3.96
PLK2 ZR751 FC (ZR751): −3.04
TRIB1 ZR751 FC (ZR751): −3.54
WEE1 ZR751 FC (ZR751): −3.25
ZNF217 ZR751 FC (ZR751): −4.13
ZNF627 ZR751 FC (ZR751): −3.38
PARP cleavage [1]: induced PARP cleavage only in the SKBR3 cells
